Data as given in patent US20200138827A1, “SMALL MOLECULE MODULATORS OF HUMAN STING” (Curadev Pharma Limited, priority 2017, published 2020).
pEC50: −log10 of the molar value.

Target: T1, WT/R232 STING protein (Homo sapiens, UniProt Q86WV6, H232R)
T1 construct: host or cells: HEK293T
Assay: Luciferase reporter assay in HEK293T-hSTING-Luciferase cells, WT/R232
Type: cell-based
Details: 20 hr stimulation, read-out: R232 Activity (EC50 range)
Method in brief: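 […], read by luminescence from supernatant after 20 h compound stimulation. Cells: clonally selected HEK293T (5×10^5/well) stably carrying WT/R232 human STING and a luciferase reporter under five tandem ISREs fused to an ISG54 minimal promoter.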

T1 sequence (Q86WV6 whole entry H232R): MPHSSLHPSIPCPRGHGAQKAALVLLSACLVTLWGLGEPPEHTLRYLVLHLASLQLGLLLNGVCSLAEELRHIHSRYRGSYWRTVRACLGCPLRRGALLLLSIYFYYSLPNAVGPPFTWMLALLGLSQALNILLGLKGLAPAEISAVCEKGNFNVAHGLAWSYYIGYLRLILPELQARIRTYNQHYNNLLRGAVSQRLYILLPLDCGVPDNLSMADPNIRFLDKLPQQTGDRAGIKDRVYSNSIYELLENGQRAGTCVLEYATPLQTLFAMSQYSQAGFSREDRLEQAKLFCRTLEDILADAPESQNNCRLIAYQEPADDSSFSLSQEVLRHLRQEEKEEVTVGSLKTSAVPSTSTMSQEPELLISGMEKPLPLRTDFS

Structure (SMILES) | pEC50
O=C(NCc1ccco1)c1ccc2c(c1)N(Cc1c(F)cccc1F)C(=O)CS2 [Example 101, 4-(2,6-difluorobenzyl)-N-(furan-2-ylmethyl)-3-oxo-3,4-dihydro-2H-benzo[b-1,4]thiazine-6-carboxamide] | 5.00 to 6.00
O=C(NCc1ccco1)c1cnc2c(c1)N(Cc1ccccc1)C(=O)CS2 [Example 180, 1-benzyl-N-(furan-2-ylmethyl)-2-oxo-2,3-dihydro-1H-pyrido[2,3-b-1,4]thiazine-7-carboxamide] | < 5.00
O=C(NCc1ccccc1Cl)c1ccc2c(c1)N(Cc1ccccc1Cl)C(=O)CS2 [Example 123, N,4-bis(2-chlorobenzyl)-3-oxo-3,4-dihydro-2H-benzo[b-1,4]thiazine-6-carboxamide] | < 5.00
O=C(NC1(c2ccccc2)CCCC1)c1ccc2c(c1)N(Cc1ccccc1)C(=O)CS2 [Example 75, 4-benzyl-3-oxo-N-(1-phenylcyclopentyl)-3,4-dihydro-2H-benzo[b-1,4]thiazine-6-carboxamide] | < 5.00
O=C(NCc1cc2cccnc2o1)c1ccc2c(c1)N(Cc1cc(F)cc(F)c1)C(=O)CC2 [Example 274, 1-(3,5-difluorobenzyl)-N-(furo[2,3-b]pyridin-2-ylmethyl)-2-oxo-1,2,3,4-tetrahydroquinoline-7-carboxamide] | < 5.00
O=C(NCc1cc2ccncc2o1)c1ccc2c(c1)N(Cc1cc(F)cc(F)c1)C(=O)CC2 [Example 272, 1-(3,5-difluorobenzyl)-N-(furo[2,3-c]pyridin-2-ylmethyl)-2-oxo-1,2,3,4-tetrahydroquinoline-7-carboxamide] | < 5.00
O=C(NCc1c(F)cc(F)cc1F)c1ccc2c(c1)N(S(=O)(=O)c1ccccc1)CCS2 [Example 261, 4-(Phenylsulfonyl)-N-(2,4,6-trifluorobenzyl)-3,4-dihydro-2H-benzo[b-1,4]thiazine-6-carboxamide] | 5.00 to 6.00
O=C(NCc1ccco1)c1ccc2c(c1)N(Cc1cccc3ccccc13)C(=O)CS2 [Example 14, N-(furan-2-ylmethyl)-4-(naphthalen-1-ylmethyl)-3-oxo-3,4-dihydro-2H-benzo[b-1,4]thiazine-6-carboxamide] | 5.00 to 6.00
O=C(NCc1ccco1)c1ccc2c(c1)N(Cc1c(F)cccc1Cl)C(=O)CO2 [Example 231, 4-(2-Chloro-6-fluorobenzyl)-N-(furan-2-ylmethyl)-3-oxo-3,4-dihydro-2H-benzo[b-1,4]oxazine-6-carboxamide] | < 5.00
O=C(NCc1ccco1)c1ccc2c(c1)N(CC(=O)N1CCc3ccccc31)C(=O)CS2 [Example 3, N-(furan-2-ylmethyl)-4-(2-(indolin-1-yl)-2-oxoethyl)-3-oxo-3,4-dihyrdo-2H-benzo[b-1,4]thiazine-6-carboxamide] | < 5.00
O=C(NC(Cc1ccccc1)c1ccccc1)c1ccc2c(c1)N(Cc1ccccc1)C(=O)CS2 (stereo not drawn) [Example 79, 4-benzyl-N-(1,2-diphenylethyl)-3-oxo-3,4-dihydro-2H-benzo[b-1,4]thiazine-6-carboxamide] | < 5.00
O=C(NCc1ccco1)c1ccc2c(c1)N(Cc1ccccc1)CCS2 [Example 246, 4-Benzyl-N-(furan-2-ylmethyl)-3,4-dihydro-2H-benzo[b-1,4]thiazine-6-carboxamide] | < 5.00
Cn1nccc1CNC(=O)c1ccc2c(c1)N(Cc1ccccc1)C(=O)CS2 [Example 67, 4-benzyl-N-((1-methyl-1H-pyrazol-5-yl)methyl)-3-oxo-3,4-dihydro-2H-benzo[b-1,4]thiazine-6-carboxamide] | < 5.00
O=C(NCc1ncco1)c1ccc2c(c1)N(Cc1ccccc1)C(=O)CS2 [Example 59, 4-benzyl-N-(oxazol-2-ylmethyl)-3-oxo-3,4-dihydro-2H-benzo[b-1,4]thiazine-6-carboxamide] | < 5.00
Nc1ccc(CNC(=O)c2ccc3c(c2)N(Cc2ccccc2)C(=O)CS3)cn1 [Example 52, N-((6-aminopyridin-3-yl)methyl)-4-benzyl-3-oxo-3,4-dihydro-2H-benzo[b-1,4]thiazine-6-carboxamide] | < 5.00
O=C(NCc1ccco1)c1ccc2c(c1)N(C(=O)c1ccccc1)CCS2 [Example 255, 4-benzoyl-N-(furan-2-ylmethyl)-3,4-dihydro-2H-benzo[b][1,4]thiazine-6-carboxamide] | < 5.00
CC1(C)C2CC(CNC(=O)c3ccc4c(c3)N(Cc3ccccc3F)C(=O)CS4)CC1C2 (stereo not drawn) [Example 22, N-((6,6-dimethyl-bicyclo[3.1.1]heptan-3-yl)methyl)-4-(2-fluorobenzyl)-3-oxo-3,4-dihydro-2H-benzo[b-1,4]thiazine 6-carboxamide] | < 5.00
N#Cc1ccccc1CN1C(=O)CSc2ccc(C(=O)NCc3ccco3)cc21 [Example 94, 4-(2-cyanobenzyl)-N-(furan-2-ylmethyl)-3-oxo-3,4-dihydro-2H-benzo[b-1,4]thiazine-6-carboxamide] | < 5.00

Structure (SMILES) | pEC50
O=C(NCC(c1ccccc1)C1CCCCC1)c1ccc2c(c1)N(Cc1c(F)cccc1Cl)C(=O)CS2 (stereo not drawn) [Example 43, 4-(2-chloro-6-fluorobenzyl)-N-(2-cyclohexyl-2-phenylethyl)-3-oxo-3,4-dihydro-2H-benzo[b][1,4] thiazine-6-carboxamide] | < 5.00
O=C(NCC1CCN(Cc2ccccc2)CC1)c1ccc2c(c1)N(Cc1c(F)cccc1Cl)C(=O)CS2 [Example 48, N-((1-benzylpiperidin-4-yl)methyl)-4-(2-chloro-6-fluorobenzyl)-3-oxo-3,4-dihydro-2H-benzo[b][1,4] thiazine-6-carboxamide] | < 5.00
O=C(NCc1ccco1)c1ccc2c(c1)N(C(=O)c1ccccc1F)CCS2 [Example 253, 4-(2-Fluorobenzoyl)-N-(furan-2-ylmethyl)-3,4-dihydro-2H-benzo[b-1,4]thiazine-6-carboxamide] | < 5.00
Cc1cnc(CNC(=O)c2ccc3c(c2)N(Cc2ccccc2)C(=O)CS3)o1 [Example 63, 4-benzyl-N-((5-methyloxazol-2-yl)methyl)-3-oxo-3,4-dihydro-2H-benzo[b-1,4]thiazine-6-carboxamide] | < 5.00
N#Cc1cc(C(=O)NCc2ccco2)cc2c1SCC(=O)N2Cc1ccccc1 [Example 219, 4-Benzyl-8-cyano-N-(furan-2-ylmethyl)-3-oxo-3,4-dihydro-2H-benzo[b-1,4]thiazine-6-carboxamide] | < 5.00
CC1(C)Sc2ccc(C(=O)NCc3ccco3)cc2N(Cc2ccccc2)C1=O [Example 132, 4-Benzyl-N-(furan-2-ylmethyl)-2,2-dimethyl-3-oxo-3,4-dihydro-2H-benzo[b-1,4]thiazine-6-carboxamide] | < 5.00
COc1ccc(CCNC(=O)c2ccc3c(c2)N(Cc2ccccc2)C(=O)CS3)cc1OC [Example 171, 4-benzyl-N-(3,4-dimethoxy-phenethyl)-3-oxo-3,4-dihydro-2H-benzo[b][1,4] thiazine-6-carboxamide] | < 5.00
O=C(NCc1ccco1)c1cc2c(cn1)SCC(=O)N2Cc1c(F)cccc1Cl [Example 182, 1-(2-chloro-6-fluorobenzyl)-N-(furan-2-ylmethyl)-2-oxo-2,3-dihydro-1H-pyrido[3,4-b-1,4]thiazine-7-carboxamide] | < 5.00
Cc1ccc(CNC(=O)c2ccc3c(c2)N(Cc2c(F)cccc2Cl)C(=O)CS3)cn1 [Example 36, 4-(2-chloro-6-fluorobenzyl)-N-((6-methyl-pyridin-3-yl)methyl)-3-oxo-3,4-dihydro-2H-benzo[b-1,4]thiazine-6-carboxamide] | < 5.00
O=C(NCc1ccccc1Cl)c1ccc2c(c1)N(Cc1ccccc1)C(=O)CS2 [Example 117, 4-benzyl-N-(2-chlorobenzyl)-3-oxo-3,4-dihydro-2H-benzo[b-1,4]thiazine-6-carboxamide] | < 5.00
O=C(NCc1ccco1)c1ccc2c(c1)N(Cc1cccnc1)C(=O)CS2 [Example 27, N-(furan-2-ylmethyl)-3-oxo-4-(pyridin-3-ylmethyl)-3,4-dihydro-2H-benzo[b-1,4]thiazine-6-carboxamide] | < 5.00
O=C(NCC1CCCCC1)c1ccc2c(c1)N(Cc1ccccc1F)C(=O)CS2 [Example 16, N-(cyclo-hexylmethyl)-4-(2-fluoro-benzyl)-3-oxo-3,4-dihydro-2H-benzo[b-1,4]thiazine-6-carboxamide] | 5.00 to 6.00
O=C(NCc1ccco1)c1ccc2c(c1)N(Cc1cccc(C(F)(F)F)c1)C(=O)CS2 [Example 97, N-(furan-2-ylmethyl)-3-oxo-4-(3-(trifluoromethyl)benzyl)-3,4-dihydro-2H-benzo[b-1,4]thiazine-6-carboxamide] | < 5.00
COc1cc(CN2C(=O)C(C)Sc3ncc(C(=O)NCc4c(F)cc(F)cc4F)cc32)ccn1 (stereo not drawn) [Example 206, 1-((2-methoxypyridin-4-yl)methyl)-3-methyl-2-oxo-N-(2,4,6-trifluorobenzyl)-2,3-dihydro-1H-pyrido[2,3-b][1,4] thiazine-7-carboxamide] | 5.00 to 6.00
Cc1noc(CNC(=O)c2ccc3c(c2)N(Cc2ccccc2)C(=O)CS3)n1 [Example 66, 4-benzyl-N-((3-methyl-1,2,4-oxadiazol-5-yl)methyl)-3-oxo-3,4-dihydro-2H-benzo[b-1,4]thiazine-6-carboxamide] | 5.00 to 6.00
O=C(NCc1c(F)cc(F)cc1F)c1cnc2c(c1)N(Cc1cc(F)cc(F)c1)C(=O)CO2 [Example 236, 1-(3,5-difluorobenzyl)-2-oxo-N-(2,4,6-trifluorobenzyl)-2,3-dihydro-1H-pyrido[2,3-b-1,4]oxazine-7-carboxamide] | < 5.00
O=C(NCC1CCCCC1)c1ccc2c(c1)N(C(=O)c1c(F)cccc1Cl)CCS2 [Example 257, 4-(2-chloro-6-fluorobenzoyl)-N-(cyclohexylmethyl)-3,4-dihydro-2H-benzo[b][1,4]thiazine-6-carboxamide] | 5.00 to 6.00
CN(C)C1Sc2ccc(C(=O)NCc3ccco3)cc2N(Cc2ccccc2F)C1=O (stereo not drawn) [Example 135, 2-(dimethylamino)-4-(2-fluorobenzyl)-N-(furan-2-ylmethyl)-3-oxo-3,4-dihydro-2H-benzo[b-1,4]thiazine-6-carboxamide] | < 5.00
